From patent US20240002229A1, “DEVICE FOR ENHANCING REACTION POTENTIAL OF OXIDIZING AGENTS” (Bis Science LLC, priority 2022, published 2024)

What was measured:
Assay type in all cases: cell-based
E. coli = test: Microbial reduction by stored photon enhanced solution versus un-exposed hydrogen peroxide; conditions: samples at 4 weeks post exposure to photons; control not exposed
[1] = test system: Staphylococcus epidermidis ATCC 12228; test: Residual effect test on inoculated agar carrier (Table 4)
Method: The test substance or PEOA was applied to target which consisted of a microbe inoculated agar plate. The application of the PEOA can be by means such as a dropper, fog, mist or spray or any other acceptable means. […] PEOA was applied to inoculated plates at intervals of 1 minute, 5 minutes, 10 minutes, 30 minutes, 1 hour, 12 hours, 24 hours, 2, days, 5 days, and 7 days after radiation exposure. In one test, after 7 days, the PEOA was again subjected to photon emissions from 0.01 nm to 845 nm for the test labeled reactivation. An additional photon and or phonon exposure similar to the initial enhancement by photon and or phonons of 0.01 nm through 845 nm was the reactivation dose of photons.

microbial counts = test: Independent research lab testing, microbial reduction, 5 minute contact time; conditions: 1 part per million, 5 minute contact time with the ambient air
Method: A small micron PEOA antimicrobial dry fog is administered into the ambient air through an existing HVAC system and device at a concentration of less than 1 part per million.

## OO [hydrogen peroxide]
E. coli
  microbial (E. coli) reduction: 23.08%

## OO [Control, hydrogen peroxide]
[1]; Control, time after radiation exposure N/A
  CFU/carrier: 6.04E+05 CFU/carrier
[1]; applied to carrier 2 Days after radiation exposure
  CFU/carrier: 3.00E+05 CFU/carrier
[1]; applied to carrier 5 Days after radiation exposure
  CFU/carrier: 4.50E+04 CFU/carrier
[1]; applied to carrier 7 Days after radiation exposure
  CFU/carrier: 9.80E+04 CFU/carrier
[1]; applied to carrier 12 Hours after radiation exposure
  CFU/carrier: 9.20E+04 CFU/carrier
[1]; applied to carrier 24 Hours after radiation exposure
  CFU/carrier: 1.33E+05 CFU/carrier

## OO [standard hydrogen peroxide, hydrogen peroxide]
Microbial counts
  microbial reduction: little or no microbial reduction
